The source of these data is patent US11364242B2, “Treatment agents for inhibiting HIV and cancer in HIV infected patients” (UNIVERSITY OF MARYLAND, BALTIMORE, priority 2015, dated 2022).

In one data set the test system is HIV-1 BaL. The experiment in a line: Antiretroviral potency with and without INK128 in PBLs infected with HIV BaL. It counts as cell-based. Conditions: Human immunodeficiency virus 1, BAL, PBMC, PBMCs, two donors. The method, then:
PBLs were separated from buffy coats by density centrifugation over Ficoll-Hypaque (Sigma™), and activated by culture in the presence of 1 μg/mL anti-human CD3 antibody (clone x35, Fisher Scientific™) and 2 μg/mL anti-human CD28 antibody (Clone CD28.6, eBioscience™) for 3 days. Activated cells were infected by incubation with virus at a multiplicity of infection (MOI) of 0.001 for 2 hours. Infected cells were washed three times with PBS and cultured in 5% CO2 at 37° C., in RPMI/10% FBS supplemented with 100 units/mL IL-2 (Roche™) and antiviral drugs, in 96-well flat-bottom plates at a density of […] PBLs per 200 μL. Following 3 d of culture, half of the medium was replaced with fresh medium containing IL-2 and antiviral drugs. On day 7, viral replication was measured by p24 ELISA (Coulter) in culture supernatants and cell viability was measured by MTT assays.
Available ARTs target the HIV lifecycle steps of entry, reverse transcription, integration, and maturation. […] In addition, by targeting virus transcription, INK128 could have favorable interactions with inhibitors of reverse transcription (RTIs), integration (Hs), and protease (PIs). […] We conducted these assays in activated PBLs infected with R5 HIV BaL and treated with various dilutions of Maraviroc (CCR5 antagonist), Efavirenz (RTI), Raltegravir (II), and Indinavir (PI). INK128 was used at low concentrations (<EC50) to better detect changes in ART potency (Table 7).
Prism software. Data are from 2 experiments, each with a different donor.

The next data set has as its system HIV-1. The experiment in a line: HIV production in PHA activated PBMCs, p24 ELISA day 7. As to conditions: p24 day 7. Background: An ELISA detects its analyte on a solid surface through an enzyme-linked reagent.
Setting [1] is: +3 nM INK128, read-out: EC50 (geometric mean).
Where [2] appears, read: +10 nM INK128, read-out: EC50 (geometric mean).
The mark [3] stands for this setting: No INK128, read-out: EC50 (geometric mean).

Molecules are shown by their SMILES. Where two headings read alike, the source gives them in different places.

The EC50 is the concentration giving half of the maximal effect. For the compound `O=C1Nc2ccc(Cl)cc2[C@@](C#CC2CC2)(C(F)(F)F)O1` [EFV], the EC50 in the data set with HIV-1 BaL (setting [1]) worked out at 0.51 nM; with HIV-1 BaL (setting [2]), 0.51 nM; in the data set on HIV-1 BaL (setting [3]), 0.52 nM.
For the compound `CC(C)(C)NC(=O)[C@@H]1CN(Cc2cccnc2)CCN1C[C@@H](O)C[C@@H](Cc1ccccc1)C(=O)N[C@H]1c2ccccc2C[C@H]1O` [IND], the EC50 amounted to 3.14 nM with HIV-1 BaL (setting [1]), 3 nM in the data set with HIV-1 BaL (setting [2]) and 3.84 nM in the data set on HIV-1 BaL (setting [3]).
`Cc1nnc(C(=O)NC(C)(C)c2nc(C(=O)NCc3ccc(F)cc3)c(O)c(=O)n2C)o1` [RAL]: the EC50 is 0.81 nM in the data set with HIV-1 BaL (read-out: EC50 (geometric mean), +3 nM INK128); 0.57 nM in the data set on HIV-1 BaL (read-out: EC50 (geometric mean), +10 nM INK128); 0.65 nM in the data set with HIV-1 BaL (read-out: EC50 (geometric mean), No INK128).
As for `Nc1ccc(-c2ccc3ncc4ccc(=O)n(-c5cccc(C(F)(F)F)c5)c4c3c2)cn1` [Torin-2, 9-(6-Amino-3-pyridinyl)-1-[3-(trifluoromethyl)phenyl]-benzo[h]-1,6-naphthyridin-2(1H)-one], the cell toxicity entry in the data set with PBMCs is “absence of cell toxicity”. For the same compound, in the data set on HIV-1, the “HIV inhibition in vitro” value is on record as “inhibits HIV in vitro”.
